Experimental data from US20250313546A1, “NUCLEIC ACID BINDERS” (UNIVERSITY OF STRATHCLYDE, priority 2022, published 2025).
In brackets after ≈: the same amount, converted by molar mass. Where two headings read alike, the source gives them in different places.

Columns and labels:
[1] = tested on: Staphylococcus aureus (ATCC 43300); test: Antibacterial MIC, broth microdilution (CLSI); format: cell-based; conditions: Staphylococcus aureus, ATCC43300; read-out: MIC80 S. aureus
[2] = tested on: Enterococcus faecalis (ATCC 51299); test: Antibacterial MIC, broth microdilution (CLSI); format: cell-based; conditions: Enterococcus faecalis, ATCC51299; read-out: MIC80 E. faecalis
[3] = tested on: Escherichia coli (ATCC 25922); test: Antibacterial MIC, broth microdilution (CLSI); format: cell-based; conditions: Escherichia coli, ATCC25922; read-out: MIC80 E. coli
Aspergillus fumigatus = test: Expanded set of filamentous fungi, MIC broth microdilution (CLSI); format: cell-based
Aspergillus flavus = test: as above; format: cell-based; conditions: MIC at 50% inhibition; for MIC50: Aspergillus flavus
Fusarium oxysporum = test: as above; format: cell-based; conditions: MIC at 50% inhibition
Scedosporium spp. = test: as above; format: cell-based
Rhizopus arrhizus = test: as above; format: cell-based
Candida parapsilosis = test: Expanded set of yeasts, MIC broth microdilution (CLSI); format: cell-based; conditions: MIC at 50% inhibition; for MIC50: Lodderomyces parapsilosis
C. krusei = test: as above; format: cell-based; conditions: Pichia kudriavzevii, ATCC6258; isolate ATCC 6258; MIC at 50% inhibition
C. auris = test: as above; format: cell-based; conditions: MIC at 50% inhibition
C. glabrata = test: as above; format: cell-based; conditions: Nakaseomyces glabratus, MIC at 50% inhibition
[4] = tested on: Genomic double stranded DNA (salmon); test: Fluorescence intercalator displacement (FID) assay, SYBR-safe probe; conditions: 20 μM compound, 30° C., lower % = stronger binding
Summary of the method: (§1)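 Compound at 20 μM mixed with 3.76 ng/mL polyAU dsRNA or salmon genomic dsDNA and 12500-fold diluted SybrSafe in 1 mM phosphate buffer pH 7.4, then heated to 30 °C and fluorescence read. Reduction is expressed as normalised %, with nucleic acid plus probe as maximum and probe alone as minimum.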

[5] = tested on: PolyAU double stranded RNA; test: as above; conditions: 20 μM compound, 30° C., lower % = stronger binding
Summary of the method: as §1

C. albicans (ATCC 90028) = conditions: Candida albicans, ATCC90028, read-out: MIC99 C. albicans
Protocol: (§2) The Minimum Inhibitory Concentration (MIC, at 99% inhibition) of the compounds was determined using the broth microdilution method as recommended by EUCAST (EUCAST Definitive Document E.DEF 9.3.2, Method for the determination of broth dilution minimum inhibitory concentrations of antifungal agents for conidia forming moulds and EUCAST Definitive Document E.DEF 7.3.2 Method for the determination of broth dilution minimum inhibitory concentrations of antifungal agents for yeasts).

C. neoformans (F10025) = conditions: Cryptococcus neoformans, read-out: MIC99 C. neoformans
A. flavus (CBS 128.202) = conditions: Aspergillus flavus, CBS128, read-out: MIC99 A. flavus
Protocol: as §2

[6] = tested on: Rhizopus arrhizus (NEQAS12.35321); conditions: read-out: MIC99 Rhizopus arrhizus
[7] = tested on: Candida glabrata (ACPF3309); conditions: Nakaseomyces glabratus, read-out: MIC99 Candida glabrata
[8] = tested on: Fusarium oxysporum (F7098); conditions: read-out: MIC99 Fusarium oxysporum
Protocol: as §2

[9] = tested on: Scedosporium prolificans (F2746); conditions: Lomentospora prolificans, read-out: MIC99 Scedosporium prolificans
Protocol: as §2

C/N=C(\CCNC(=O)c1cc(NC(=O)c2cc(NC(=O)c3ccc(/C=C/c4ccc(N(C)C)cc4)nc3)cn2C)cn1C)NC [Ia8, 6-((E)-4-(dimethylamino)styryl)-N-(1-methyl-5-((1-methyl-5-(((E)-3-(methylamino)-3-(methylimino)propyl)carbamoyl)-1H-pyrrol-3-yl)carbamoyl)-1H-pyrrol-3-yl)nicotinamide]
MIC80 [1]: 5 to 25 µM (≈ 3.05 to 15.2 µg/mL)
MIC80 [2]: 25 to 100 µM (≈ 15.2 to 61 µg/mL)
MIC80 [3]: > 100 µM
MIC50 (Aspergillus fumigatus; isolate AF293, MIC at 50% inhibition): 1 to 8 µg/mL (≈ 1.64 to 13.1 µM)
MIC50 (Aspergillus fumigatus; isolate DI15-106, MIC at 50% inhibition): 1 to 8 µg/mL (≈ 1.64 to 13.1 µM)
MIC50 (Aspergillus fumigatus; isolate DI15-116, MIC at 50% inhibition): 1 to 8 µg/mL (≈ 1.64 to 13.1 µM)
MIC50 (Aspergillus fumigatus; isolate DI19-187, MIC at 50% inhibition): 1 to 8 µg/mL (≈ 1.64 to 13.1 µM)
MIC50 (Aspergillus fumigatus; isolate DI19-230, MIC at 50% inhibition): 1 to 8 µg/mL (≈ 1.64 to 13.1 µM)
MIC50 (Aspergillus fumigatus; isolate DI19-231, MIC at 50% inhibition): 1 to 8 µg/mL (≈ 1.64 to 13.1 µM)
MIC50 (Aspergillus fumigatus; isolate DI19-232, MIC at 50% inhibition): 1 to 8 µg/mL (≈ 1.64 to 13.1 µM)
MIC50 (Aspergillus fumigatus; isolate DI19-233, MIC at 50% inhibition): 1 to 8 µg/mL (≈ 1.64 to 13.1 µM)
MIC50 (Aspergillus fumigatus; isolate DI19-234, MIC at 50% inhibition): 1 to 8 µg/mL (≈ 1.64 to 13.1 µM)
MIC50 (Aspergillus fumigatus; isolate DI19-236, MIC at 50% inhibition): 1 to 8 µg/mL (≈ 1.64 to 13.1 µM)
MIC50 (Aspergillus fumigatus; isolate DI19-237, MIC at 50% inhibition): 1 to 8 µg/mL (≈ 1.64 to 13.1 µM)
MIC50 (Aspergillus fumigatus; isolate DI20-95, MIC at 50% inhibition): 1 to 8 µg/mL (≈ 1.64 to 13.1 µM)
MIC50 (Aspergillus fumigatus; isolate DI20-103, MIC at 50% inhibition): 1 to 8 µg/mL (≈ 1.64 to 13.1 µM)
MIC50 (Aspergillus flavus; ATCC204304, isolate ATCC 204304): 1 to 8 µg/mL (≈ 1.64 to 13.1 µM)
MIC50 (Aspergillus flavus; isolate Aflav2): 1 to 8 µg/mL (≈ 1.64 to 13.1 µM)
MIC50 Aspergillus flavus (Aspergillus flavus; isolate Aflav3): ** (** means 1 μg/mL < MIC50 <= 8 μg/mL)
MIC50 (Fusarium oxysporum; Fusarium oxysporum, isolate F2): ≤ 1 µg/mL
MIC50 Fusarium oxysporum (Fusarium oxysporum; isolate F3): *** (*** means MIC50 <= 1 μg/mL)
MIC50 (Scedosporium spp.; isolate S1, MIC at 50% inhibition): 1 to 8 µg/mL (≈ 1.64 to 13.1 µM)
MIC50 (Scedosporium spp.; isolate S3, MIC at 50% inhibition): 1 to 8 µg/mL (≈ 1.64 to 13.1 µM)
MIC50 (Rhizopus arrhizus; isolate 99-880, MIC at 50% inhibition): 1 to 8 µg/mL (≈ 1.64 to 13.1 µM)
MIC50 (Rhizopus arrhizus; isolate 99-892, MIC at 50% inhibition): 1 to 8 µg/mL (≈ 1.64 to 13.1 µM)
MIC50 (Rhizopus arrhizus; isolate RA3, MIC at 50% inhibition): 1 to 8 µg/mL (≈ 1.64 to 13.1 µM)
MIC50 (Candida parapsilosis; ATCC22019, isolate ATCC 22019, read-out: MIC50 Candida parapsilosis): 1 to 8 µg/mL (≈ 1.64 to 13.1 µM)
MIC50 (Candida parapsilosis; isolate CP1, read-out: MIC50 C. parapsilosis): 1 to 8 µg/mL (≈ 1.64 to 13.1 µM)
MIC50 C. parapsilosis (Candida parapsilosis; isolate CP2): ** (** means 1 μg/mL < MIC50 <= 8 μg/mL)
MIC50 C. parapsilosis (Candida parapsilosis; isolate CP3): ** (** means 1 μg/mL < MIC50 <= 8 μg/mL)
MIC50 (C. krusei): 1 to 8 µg/mL (≈ 1.64 to 13.1 µM)
MIC50 (C. auris; Candidozyma auris, isolate DI17-47): 1 to 8 µg/mL (≈ 1.64 to 13.1 µM)
MIC50 C. auris (C. auris; isolate DI17-46): ** (** means 1 μg/mL < MIC50 <= 8 μg/mL)
MIC50 C. auris (C. auris; isolate DI17-48): ** (** means 1 μg/mL < MIC50 <= 8 μg/mL)
MIC50 (C. glabrata; isolate 05-62): 1 to 8 µg/mL (≈ 1.64 to 13.1 µM)
MIC50 (C. glabrata; isolate 05-761): 1 to 8 µg/mL (≈ 1.64 to 13.1 µM)
MIC50 (C. glabrata; isolate CG3): 1 to 8 µg/mL (≈ 1.64 to 13.1 µM)
% Normalised Fluorescence with gDNA [4]: 4%
% Normalised Fluorescence with polyAU RNA [5]: 9%
MIC99 (C. albicans (ATCC 90028)): 25 to 50 µg/mL (≈ 41 to 82 µM)
MIC99 (C. neoformans (F10025)): 5 to 25 µg/mL (≈ 8.2 to 41 µM)
MIC99 (A. flavus (CBS 128.202)): < 5 µg/mL
MIC99 [6]: 5 to 25 µg/mL (≈ 8.2 to 41 µM)
MIC99 [7]: 5 to 25 µg/mL (≈ 8.2 to 41 µM)
MIC99 [8]: < 5 µg/mL
MIC99 [9]: 5 to 25 µg/mL (≈ 8.2 to 41 µM)
